Reference: patent publication US7427623B2, “4-Amino-2,3-disubstituted thieno[2,3-d]pyrimidines and pharmacetical compositions thereof” (SmithKline Beecham Corporation, priority 2001, dated 2008)

Legend:
[1] = test system: Human umbilical cord endothelial cells (HUVEC); assay: VEGF-Driven Cellular Proliferation Assay, BrdU Incorporation Assay (VEGF-C); format: cell-based; settings: for IC50: Homo sapiens, read-out: VEGF-C pIC50 (converted)
Protocol: VEGF-Driven Cellular Proliferation Assay. BrdU Incorporation Assay (VEGF-C)
Human umbilical cord endothelial cells (HUVEC, Clonetics, CC2519) were passaged in Type I collagen-coated 100-mm petridishes in EGM-MV medium (Clonetics, CC3125) at 37 C in a humidified 5% CO2, 95% air incubator. […] After incubation overnight at 37° C., the media were replaced with 100 ul of M199 serum-free medium containing compounds at various concentrations with 0.6% DMSO and gentamicin. The compounds were diluted in serum-free M199 medium from 10 mM stock solutions prepared in 100% DMS0. […] The cells were pulsed with bromodeoxyuridine (BrdU at 10 uM in serum-free M199) at 37° C. for an additional 24 h. […] The optical density at 450 nm was measured with a multilabel counter (ARVO SX, Wallac). The percent inhibition of cell growth was calculated relative to blank control wells. […] The IC50 values were converted to pIC50 values, i.e., −log IC50 in Molar concentration.

[2] = target: T1, GST-TIE2 (intracellular domains of human TIE2) (Homo sapiens, UniProt Q02763); assay: TIE-2 Enzyme assay (TIE2-E), LANCE method; format: biochemical; settings: GST-TIE2, 80 uM ATP, D1–15 peptide; for IC50: read-out: TIE2-E pIC50 (converted)
T1 construct: made in house
Protocol: TIE-2 Enzyme assay (TIE2-E)
Preactivated GST-TIE2 was incubated for 30 mins at room temperature in 96 well plates with 1 uM D1–15 peptide, 80 uM ATP, 10 mM MgCl2, 0.1 mg/ml BSA and the test compound (diluted from a 10 mM stock in DMSO, final DMSO concentration was 2.4%) in 1 mM HEPES (pH 7.4). The reaction was stopped by the addition of EDTA (final concentration 45 mM). Streptavidin linked-APC (allophycocyanin, Molecular Probe) and Europium-labeled anti-phosphorylated tyrosine antibody (Wallac) were then added at the final concentration of 17 ug/well and 2.1 ug/well, respectively. The APC signal was measured using an ARVO multilabel counter. (Wallac Berthold Japan). The percent inhibition of activity was calculated relative to blank control wells. […] The IC50 values were converted to pIC50 values, i.e., −log IC50 in Molar concentration.

[3] = target: T2, TIE2 intracellular domain/c-fms extracellular domain (TIE2/c-fms) chimeric protein (Homo sapiens, UniProt Q02763); assay: TIE-2 Autophosphorylation Assay (TIE2-C), ELISA; format: cell-based; settings: TIE2/c-fms expressing mouse 3T3 cells, MCSF activation; for IC50: read-out: TIE2-C pIC50 (converted)
T2 construct: TIE2 intracellular domain/c-fms extracellular domain (TIE2/c-fms) chimeric protein; expressed in transfected cells; host or cells: mouse 3T3 cells
Protocol: TIE-2 Autophosphorylation Assay (TIE2-C)
The TIE-2 autophosphorylation assay used an ELISA method and a TIE2 intracellular domain/c-fms extracellular domain (TIE2/c-fms) chimeric protein expressing mouse 3T3 cells. This assay measured the autophosphorylation level of TIE2 protein expressed in cells. The cells were cultured in high glucose DMEM (Sigma) containing 10% serum at 37° C. in a humidified 10% CO2, 90% air incubator. The test compound (diluted from a 10 mM stock in DMSO, final DMSO concentration was 0.1%) was incubated with TIE2/c-fms expressing cells for 1 hr in serum free DMEM in 96 well plates followed by the activation of TIE2/c-fms receptor using c-fms ligand, MCSF (macrophage colony stimulating factor). […] The cell extracts were transferred into Rat anti-c-fms antibody coated 96 well plates and incubated for 12 hrs at 4 degrees. The extracts were removed by aspiration and the plate was incubated with biotinylated anti-phosphotyrosine antibody, PT66 (Sigma) and then with HRP (Horseradish Peroxidase)-labeled streptavidin (PIERCE). The optical density at 450 nm derived from HRP catalyzed TMB was measured with an ARVO multilabel counter. (Wallac Berthold Japan). The percent inhibition of activity was calculated relative to blank control wells. […] The IC50 values were converted to pIC50 values, i.e., −log IC50 in Molar concentration.

GST-VEGFR2 = target: T3, GST-VEGFR2 (Homo sapiens, UniProt P35968); assay: VEGF-R2 Enzyme Assay (VEGF-E), LANCE method; format: biochemical; settings: GST-VEGFR2, 75 uM ATP; for IC50: read-out: VEGF-E pIC50 (converted)
T3 construct: GST-VEGFR2, baculovirus expressed recombinant constructs of the intracellular domains of human TIE2 tagged by GST; made in house
Protocol: VEGF-R2 Enzyme Assay (VEGF-E)
The VEGF enzyme assay used the LANCE method (Wallac) and GST-VEGFR2, baculovirus expressed recombinant constructs of the intracellular domains of human […] tagged by GST. […] The reaction was stopped by the addition of EDTA (final concentration 50 mM). […] The APC signal was measured using an ARVO multilabel counter (Wallac Berthold, Japan). The percent inhibition of activity was calculated relative to blank control wells. […] The IC50 values were converted to pIC50 values, i.e., −log IC50 in Molar concentration.

T1 sequence (Q02763 762-1104): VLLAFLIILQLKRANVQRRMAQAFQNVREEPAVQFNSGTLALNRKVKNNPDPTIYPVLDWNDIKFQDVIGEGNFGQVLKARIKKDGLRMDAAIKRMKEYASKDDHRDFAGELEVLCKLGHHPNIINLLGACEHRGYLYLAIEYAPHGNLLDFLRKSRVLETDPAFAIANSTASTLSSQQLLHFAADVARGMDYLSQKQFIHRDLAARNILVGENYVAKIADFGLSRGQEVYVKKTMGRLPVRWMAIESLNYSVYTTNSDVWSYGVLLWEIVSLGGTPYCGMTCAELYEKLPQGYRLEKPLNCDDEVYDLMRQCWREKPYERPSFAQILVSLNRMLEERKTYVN
T2 sequence (Q02763 770-1124 limits assumed, change not shown): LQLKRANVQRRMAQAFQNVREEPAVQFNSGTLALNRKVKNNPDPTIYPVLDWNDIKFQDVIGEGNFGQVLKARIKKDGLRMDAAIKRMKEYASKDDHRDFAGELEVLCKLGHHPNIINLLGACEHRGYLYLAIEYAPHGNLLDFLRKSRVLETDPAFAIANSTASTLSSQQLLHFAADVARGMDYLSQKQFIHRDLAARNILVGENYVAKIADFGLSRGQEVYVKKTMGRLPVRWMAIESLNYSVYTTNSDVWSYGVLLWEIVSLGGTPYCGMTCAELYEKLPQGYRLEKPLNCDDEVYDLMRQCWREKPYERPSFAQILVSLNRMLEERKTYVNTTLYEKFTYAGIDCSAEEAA
T2 sequence (P07333 20-517 partner limits assumed): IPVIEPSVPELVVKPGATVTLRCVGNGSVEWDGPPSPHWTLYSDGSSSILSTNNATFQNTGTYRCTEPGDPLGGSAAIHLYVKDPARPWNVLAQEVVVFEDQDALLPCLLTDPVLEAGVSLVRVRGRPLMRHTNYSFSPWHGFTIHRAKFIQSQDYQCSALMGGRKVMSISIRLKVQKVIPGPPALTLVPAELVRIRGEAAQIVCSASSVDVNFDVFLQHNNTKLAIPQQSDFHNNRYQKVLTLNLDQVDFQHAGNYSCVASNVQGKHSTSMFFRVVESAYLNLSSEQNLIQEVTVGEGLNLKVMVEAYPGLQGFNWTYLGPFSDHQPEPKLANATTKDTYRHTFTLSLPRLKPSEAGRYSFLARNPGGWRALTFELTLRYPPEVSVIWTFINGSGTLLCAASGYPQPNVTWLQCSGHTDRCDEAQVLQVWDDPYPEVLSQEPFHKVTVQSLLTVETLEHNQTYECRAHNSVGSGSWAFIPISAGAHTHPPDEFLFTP
T2 sequence (P09603 33-190 partner limits assumed): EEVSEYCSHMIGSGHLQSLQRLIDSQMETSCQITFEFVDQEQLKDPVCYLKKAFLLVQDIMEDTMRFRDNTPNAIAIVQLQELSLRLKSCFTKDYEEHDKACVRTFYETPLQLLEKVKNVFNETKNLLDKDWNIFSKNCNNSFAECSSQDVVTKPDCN
T3 sequence (P35968 786-1356 limits assumed): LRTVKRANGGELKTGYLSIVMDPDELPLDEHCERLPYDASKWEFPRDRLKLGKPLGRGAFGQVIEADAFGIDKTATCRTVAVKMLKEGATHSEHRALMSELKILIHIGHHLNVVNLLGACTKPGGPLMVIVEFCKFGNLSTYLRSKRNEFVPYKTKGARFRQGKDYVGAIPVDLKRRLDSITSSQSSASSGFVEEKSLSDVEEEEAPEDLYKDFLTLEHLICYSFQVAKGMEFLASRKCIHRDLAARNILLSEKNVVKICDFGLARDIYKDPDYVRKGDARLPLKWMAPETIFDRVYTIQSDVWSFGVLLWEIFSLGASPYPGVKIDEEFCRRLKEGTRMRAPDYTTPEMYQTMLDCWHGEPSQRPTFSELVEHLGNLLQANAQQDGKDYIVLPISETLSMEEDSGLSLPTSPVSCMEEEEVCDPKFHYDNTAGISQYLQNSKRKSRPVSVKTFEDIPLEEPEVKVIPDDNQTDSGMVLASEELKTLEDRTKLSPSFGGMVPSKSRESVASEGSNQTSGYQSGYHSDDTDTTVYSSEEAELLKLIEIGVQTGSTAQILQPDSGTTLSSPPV

Nc1ncnc2oc(-c3ccc4[nH]cnc4c3)c(-c3ccc(-c4ccccc4)cc3)c12 [Example 198, 4-Amino-2-(5-benzimidazolyl)-3-(4-biphenyl)furo[2,3-d]pyrimidine]
IC50 [1]: 1000 to 10000 nM | IC50 [2]: 100 to 1000 nM | IC50 [3]: 100 to 1000 nM

Nc1ncnc2oc(-c3ccc4[nH]nnc4c3)c(-c3ccc(-c4ccccc4)cc3)c12 [Example 196, 4-Amino-2-(5-benzotriazolyl)-3-(4-biphenyl)furo[2,3-d]pyrimidine]
IC50 [1]: 1000 to 10000 nM | IC50 [2]: 100 to 1000 nM | IC50 [3]: 100 to 1000 nM

4-Amino-3-(4-methoxyphenyl)-2-(3-(N-(4-pyridyl)carbamoyl)-phenyl)furo[2,3-d]pyrimidine [Example 108]
VEGF-C pIC50 [1]: + (+ = pIC50 of 5.0–6.0) | TIE2-E pIC50 [2]: ++ (++ = pIC50 of 6.0–7.0) | TIE2-C pIC50 [3]: ++ (++ = pIC50 of 6.0–7.0)

NC(=O)c1cccc(-c2oc3ncnc(N)c3c2-c2ccc(-c3ccccc3)cc2)c1 [Example 131, 4-Amino-3-(4-biphenyl)-2-(3-carbamoylphenyl)furo[2,3-d]pyrimidine]
IC50 [1]: 1000 to 10000 nM | IC50 (GST-VEGFR2): 100 to 1000 nM | IC50 [2]: 100 to 1000 nM | IC50 [3]: 100 to 1000 nM

4-Amino-3-(4-(2-pyridyl)phenyl)-2-(3-sulfamoylphenyl)furo[2,3-d]pyrimidine [Example 206]
VEGF-C pIC50 [1]: + (+ = pIC50 of 5.0–6.0) | VEGF-E pIC50 (GST-VEGFR2): +++ (+++ = pIC50 of >7.0) | TIE2-E pIC50 [2]: ++ (++ = pIC50 of 6.0–7.0) | TIE2-C pIC50 [3]: ++ (++ = pIC50 of 6.0–7.0)

4-Amino-2-(4-fluoro-3-(methylsulfonylamino)phenyl)-3-(4-methoxyphenyl)furo[2,3-d]pyrimidine [Example 178]
VEGF-C pIC50 [1]: + (+ = pIC50 of 5.0–6.0) | VEGF-E pIC50 (GST-VEGFR2): ++ (++ = pIC50 of 6.0–7.0) | TIE2-E pIC50 [2]: + (+ = pIC50 of 5.0–6.0) | TIE2-C pIC50 [3]: ++ (++ = pIC50 of 6.0–7.0)

NC(=O)Nc1cccc(-c2oc3ncnc(N)c3c2-c2ccc(-c3ccccc3)cc2)c1 [Example 184, 4-Amino-2-(3-(aminocarbonylamino)phenyl)-3-(4-biphenyl)furo[2,3-d]pyrimidine]
IC50 [1]: 1000 to 10000 nM | IC50 (GST-VEGFR2): < 100 nM | IC50 [2]: 100 to 1000 nM | IC50 [3]: 100 to 1000 nM

CC(=O)Nc1cccc(-c2oc3ncnc(N)c3c2-c2ccc(-c3ccccc3)cc2)c1 [Example 132, 2-(3-Acetamidophenyl)-4-amino-3-(4-biphenyl)furo[2,3-d]pyrimidine]
IC50 [1]: 1000 to 10000 nM | IC50 (GST-VEGFR2): 100 to 1000 nM | IC50 [2]: 1000 to 10000 nM | IC50 [3]: 100 to 1000 nM

4-Amino-2-(4-amino-3-(N-methylcarbamoyl)phenyl)-3-(4-methoxyphenyl)furo[2,3-d]pyrimidine [Example 147]
VEGF-C pIC50 [1]: + (+ = pIC50 of 5.0–6.0) | VEGF-E pIC50 (GST-VEGFR2): ++ (++ = pIC50 of 6.0–7.0) | TIE2-E pIC50 [2]: + (+ = pIC50 of 5.0–6.0) | TIE2-C pIC50 [3]: ++ (++ = pIC50 of 6.0–7.0)

Nc1ncnc2occ(-c3ccc(NC(=O)Nc4cc(C(F)(F)F)ccc4F)cc3)c12 [232 (8C), 4-Amino-3-(4-((2-fluoro-5-(trifluoromethyl)phenyl)-aminocarbonylamino)phenyl)furo[2,3-d]pyrimidine]
IC50 [1]: < 100 nM | IC50 (GST-VEGFR2): < 100 nM | IC50 [2]: < 100 nM | IC50 [3]: < 100 nM

Nc1ncnc2oc(-c3cccc(S(N)(=O)=O)c3)c(-c3ccc(-c4ccccc4)cc3)c12 [Example 166, 4-Amino-3-(4-biphenyl)-2-(3-sulfamoylphenyl)furo[2,3-d]pyrimidine]
IC50 [1]: 1000 to 10000 nM | IC50 (GST-VEGFR2): < 100 nM | IC50 [2]: 100 to 1000 nM | IC50 [3]: 100 to 1000 nM

Cc1ccc(-c2oc3ncnc(N)c3c2-c2ccc(C)cc2)cc1 [Example 16]
VEGF-C pIC50 [1]: + (+ = pIC50 of 5.0–6.0) | VEGF-E pIC50 (GST-VEGFR2): ++ (++ = pIC50 of 6.0–7.0) | TIE2-E pIC50 [2]: + (+ = pIC50 of 5.0–6.0) | TIE2-C pIC50 [3]: + (+ = pIC50 of 5.0–6.0)

Nc1ncnc2oc(-c3cccc(S(N)(=O)=O)c3)c(-c3ccc(-c4cccc(F)c4F)cc3)c12 [Example 5]
IC50 [1]: 1000 to 10000 nM | IC50 (GST-VEGFR2): < 100 nM | IC50 [2]: 100 to 1000 nM | IC50 [3]: 100 to 1000 nM

CNS(=O)(=O)c1cccc(-c2oc3ncnc(N)c3c2-c2ccc(-c3ccccc3)cc2)c1 [Example 200, 4-Amino-3-(4-biphenyl)-2-(3-(N-methylsulfonyl)phenyl)furo[2,3-d]pyrimidine]
IC50 [1]: 1000 to 10000 nM | IC50 (GST-VEGFR2): < 100 nM | IC50 [2]: 100 to 1000 nM | IC50 [3]: 100 to 1000 nM

4-Amino-3-(4-(4-tert-butylphenyl)phenyl)-2-(3-sulfamoylphenyl)-furo[2,3-d]pyrimidine [Example 204]
VEGF-C pIC50 [1]: + (+ = pIC50 of 5.0–6.0) | TIE2-E pIC50 [2]: ++ (++ = pIC50 of 6.0–7.0) | TIE2-C pIC50 [3]: ++ (++ = pIC50 of 6.0–7.0)

Nc1ncnc2oc(-c3ccoc3)c(-c3ccco3)c12 [Example 15]
VEGF-C pIC50 [1]: + (+ = pIC50 of 5.0–6.0) | VEGF-E pIC50 (GST-VEGFR2): ++ (++ = pIC50 of 6.0–7.0) | TIE2-E pIC50 [2]: + (+ = pIC50 of 5.0–6.0) | TIE2-C pIC50 [3]: + (+ = pIC50 of 5.0–6.0)

4-Amino-2-(5-indolyl)-3-(4-(3-pyridyl)phenyl)furo[2,3-d]pyrimidine [Example 153]
VEGF-C pIC50 [1]: + (+ = pIC50 of 5.0–6.0) | TIE2-E pIC50 [2]: ++ (++ = pIC50 of 6.0–7.0) | TIE2-C pIC50 [3]: ++ (++ = pIC50 of 6.0–7.0)

COc1ccc(-c2oc3ncnc(N)c3c2-c2ccc(NC(=O)Nc3cc(C(F)(F)F)ccc3F)cc2)cc1 [Example 4]
IC50 [1]: < 100 nM | IC50 (GST-VEGFR2): < 100 nM | IC50 [2]: < 100 nM | IC50 [3]: < 100 nM

N#Cc1cccc(-c2oc3ncnc(N)c3c2-c2ccc(NC(=O)Nc3cc(C(F)(F)F)ccc3F)cc2)c1 [Example 8]
IC50 [1]: < 100 nM | IC50 (GST-VEGFR2): < 100 nM | IC50 [2]: < 100 nM | IC50 [3]: < 100 nM

NC(=O)Nc1ccc(-c2oc3ncnc(N)c3c2-c2ccc(-c3ccccc3)cc2)cc1 [Example 192, 4-Amino-3-(4-biphenyl)-2-(4-(aminocarbonylamino)phenyl)furo[2,3-d]pyrimidine]
IC50 [1]: 1000 to 10000 nM | IC50 (GST-VEGFR2): < 100 nM | IC50 [2]: 100 to 1000 nM | IC50 [3]: 100 to 1000 nM

COc1ccc(-c2oc3ncnc(N)c3c2-c2ccc(-c3ccccc3)cc2)cc1NS(C)(=O)=O [Example 189, 4-Amino-3-(4-biphenyl)-2-(4-methoxy-3-(methylsulfonylamino)phenyl)furo[2,3-d]pyrimidine]
IC50 [1]: 1000 to 10000 nM | IC50 (GST-VEGFR2): < 100 nM | IC50 [2]: 100 to 1000 nM | IC50 [3]: 100 to 1000 nM

CN(C)CCNC(=O)Nc1cccc(-c2oc3ncnc(N)c3c2-c2ccc(-c3ccccc3)cc2)c1 [Example 159, 4-Amino-3-(4-biphenyl)-2-((3-(2-(dimethylamino)ethyl)-aminocarbonylamino)phenyl)furo-[2,3-d]pyrimidine]
IC50 [1]: 100 to 1000 nM | IC50 (GST-VEGFR2): 100 to 1000 nM | IC50 [2]: 100 to 1000 nM | IC50 [3]: 100 to 1000 nM
